Structures can show the parent of a compound that is named as a salt.
Assays:
[1] = typical, background statement; cited from earlier work
[2] = system: Cebus apella monkeys with iron overload; conditions: cited from earlier work
[3] = system: iron-loaded Cebus apella monkeys; test: Chelator-induced iron excretion (iron-balance study) in iron-loaded Cebus apella monkeys; assay type: in vivo; conditions: s.c., 150 μmoles/Kg; for efficiency of iron chelation: mean
Method: After intramuscular anesthesia with ketamine, an intravenous infusion was started in a leg vein. […] Two to three infusions, separated by between 10 and 14 days, were necessary to provide about 500 mg iron per Kg body weight. […] At least twenty half-lives, sixty days, passed before using any of the animals in experiments evaluating iron-chelating agents.
Seven days before the administration of the drug, the animals were placed in metabolic cages and started on a low-iron liquid diet. The monkeys were maintained on the low-iron liquid diet for the duration of the experiment. They were given food according to their body weight, and intake was very carefully monitored.
Three days prior to drug administration, day −2 to day 0, baseline iron intake and output values were measured. This same measurement was made for day +1 to day +3. The total amount of iron intake was compared with the total amount of iron excreted.
Fecal and urine samples were collected at 24 hour intervals. The collections began four days prior to the administration of the test drug and continued for an additional five days after the drug was given. Fecal samples were assayed for the presence of occult blood, weighed, and mixed with distilled deionized water prior to autoclaving for 30 minutes. The mixture was then freeze-dried, and a known portion of the powder was mixed with low-iron nitric acid and refluxed for 24 hours. Once any particulate matter in the digested samples was removed by centrifugation, iron concentrations were determined by flame atomic absorption. Monkey urine samples were acidified and reconstituted to initial volume after sterilization, if necessary.
In the primates, DFOM was administered s.c. in sterile water for injection at a dose of 150 μmoles/Kg, while HBED was first dissolved in a phosphate buffer, ph 7.4, thus forming the mono-sodium salt and given s.c. in 40% wt./vol. Cremophor RH40 at a dose of 75 or 150 μmoles/Kg. In addition, in order to more closely mimic clinical applications in patients, mono-sodium HBED was also given to the monkeys s.c. at a dose of 150 μmoles/Kg in a phosphate buffer; no Cremophor vehicle was used.
The efficiency of each chelator was calculated on the basis of a 1:1 ligand-iron complex.
Groups of monkeys (n=6 in each group) were given s.c. injections of either DFOM or MS HBED. […] In our initial experiments, HBED monohydrochloride monohydrate was dissolved in a phosphate buffer at p.7.2 to form a solution of the MS HBED and administered in 40% wt./vol. […] HBED monohydrochloride monohydrate-Cremophor was administered by s.c. injection at doses of 75 or 150 μmoles/Kg.

[4] = Water solubility; assay type: physicochemical
[5] = system: human patients; conditions: oral; cited from earlier work

CC(=O)N(O)CCCCCNC(=O)CCC(=O)N(O)CCCCCNC(=O)CCC(=O)N(O)CCCCCN [DFOM, desferrioxamine B mesylate]
share of the compound administered that binds iron [1]: ≤ 5% | activity in the Cebus apella monkey screen compared with oral HBED or its dimethyl ester ([2]; DFOM subcutaneous vs HBED or dimethyl ester oral): significantly higher activity | share of chelator-induced iron excretion in the stool ([3]; aqueous solution): about 65% | share of chelator-induced iron excretion in the urine ([3]; aqueous solution): about 35% | chelator-induced iron excretion ([3]; aqueous solution, n=6): 435±115 μg Fe/Kg body weight | efficiency of iron chelation ([3]; aqueous solution): 5.1±1.3%

Cl.O.O=C(O)CN(CCN(CC(=O)O)Cc1ccccc1O)Cc1ccccc1O [HBED monohydrochloride monohydrate]
water solubility [4]: low water solubility

O=C(O)CN(CCN(CC(=O)O)Cc1ccccc1O)Cc1ccccc1O [HBED, N,N′-bis(2-hydroxybenzyl)ethylenediamine-N,N′-diacetic acid]
level of iron excretion for treatment of iron overload [5]: ineffective | chelator-induced iron excretion ([2]; oral, phosphate buffer, previously published study): 50±44 μg Fe/Kg body weight | share of chelator-induced iron excretion in the stool ([2]; oral, phosphate buffer): about 56% | share of chelator-induced iron excretion in the urine ([2]; oral, phosphate buffer): about 44% | efficiency of iron chelation ([2]; oral, phosphate buffer, mean): 0.5±0.5%

O=C([O-])CN(CCN(CC(=O)O)Cc1ccccc1O)Cc1ccccc1O.[Na+] [MS HBED, HBED, monosodium salt]
mean net iron excretion, phosphate buffer vs Cremophor preparation ([3]; P>0.2): no significant difference | share of chelator-induced iron excretion in the stool ([3]; phosphate buffer): about 92% | share of chelator-induced iron excretion in the urine ([3]; phosphate buffer): about 8% | iron excretion relative to DFOM ([3]; phosphate buffer vs DFOM s.c. 150 μmoles/Kg, P<0.001): about twice | chelator-induced iron excretion ([3]; phosphate buffer, no Cremophor): 899±193 μg Fe/Kg body weight | efficiency of iron chelation ([3]; phosphate buffer): 10.7±2.3%
